# From PMC12193374, “Exploring Carboxamide Derivatives as Promising Anticancer Agents: Design, In Vitro Evaluation, and Mechanistic Insights” (International Journal of Molecular Sciences, 2025)
# Columns and labels:
# Type in all cases: cell-based
# [1] = system: HCT-116 human colorectal carcinoma cells; test: MTT antiproliferative assay, HCT-116; conditions: for IC50: Homo sapiens, HCT-116, MTT, 72 h treatment, mean ± SD, read-out: IC50 (µM) ± S.D. HCT-116 Colon Cancer; for Selectivity index (IC50 normal fibroblast/IC50 HCT-116): fibroblasts/colon cancer, first value of the SI cell; for Selectivity for HCT-116 over MCF-7: ratio of MCF-7 to HCT-116 IC50
# Method: (§1) The proliferation inhibitory activities of the carboxamide derivatives 4-16 were tested in vitro using the MTT assay against the human cancer MCF-7, K-562, and HCT-116 cell lines in addition to normal human cells (dermal fibroblasts) to evaluate their putative selective cytotoxic activities. […] The human colorectal carcinoma (HCT-116), human breast adenocarcinoma (MCF-7), human chronic myelogenous leukemia (K-562), and human dermal fibroblast normal cell lines were purchased from were purchased from the American Type Culture Collection (ATCC) (Manassas, VA, USA) and stored in liquid nitrogen. Cells were passaged twice weekly upon reaching 70–80% confluency, and only low passage numbers (≤ 10) were used in all experiments. Mycoplasma contamination was monitored using the Lonza MycoAlert™ mycoplasma detection kit. Cells were sub-cultured and maintained with appropriate media: RPMI-1640 medium (Buffalo, New York, USA) was used to grow MCF-7, K-562 and HCT-116 cancer cells, while fibroblast cells were cultured in Iscove’s Modified Dulbecco’s medium (IMDM) (EuroClone S.p.A., Pero, MI, Italy). Both media were supplemented with 10% (v/v) heat-inactivated fetal bovine serum (FBS) (Gibco, CA, USA), 2 mM of L-Glutamine, 100 units/mL of Penicillin, and 100 μg/mL of Streptomycin (EuroClone, Italy). Cells were maintained at 37 °C in a humidified incubator with 5% CO2 (NuAire, Plymouth, MN, USA). The MTT colorimetric assay utilized in this study was previously described and adapted from Mosmann. The MTT regent [3-(4,5-dimethylthiazol-2-yl)-2,5-diphenyl tetrazolium bromide] was employed to evaluate the antiproliferative activities of carboxamides 4-16 against MCF-7, K-562, HCT-116, and dermal normal fibroblast cell lines. Cells (6–8 × 10^3 per well, 180 µL) were seeded into 96-well plates (Corning, New York, USA) and allowed to adhere overnight at 37 °C in a humidified 5% CO₂ incubator. Fresh top stock solutions of the test compounds (10 mM in DMSO) were then freshly prepared, followed by serial dilutions in the appropriate culture media before being added to the seeded cells. […] Initial screening for potential antiproliferative activity was carried out using two concentration points (10 µM and 50 µM) in triplicate over a 72-hour incubation period. […] Following 72 h of exposure, MTT solution (2 mg/mL in PBS, 50 µL per well) was added, and plates were incubated for an additional 4 h. The supernatant in each well was then removed, and the resulting formazan crystals were solubilized by adding DMSO (150 µL per well). Absorbance, measured as the optical density (OD), was recorded at 570 nm using a microplate reader (Thermo Fisher Scientific, Waltham, MA, USA). The detected signal intensity corresponds to metabolic activity, which directly correlates with the viable cell number. All experiments were performed in triplicate, and the results are presented as the mean ± standard deviation (SD). The IC50 values for antiproliferative activity were calculated using nonlinear regression analysis in GraphPad Prism software (GraphPad Prism version 9.0.0 for Windows, GraphPad Software, San Diego, California USA). Additionally, a two-way ANOVA test was conducted to analyze significant variations in IC50 values, with a significant level set at α = 0.05.
# [2] = system: MCF-7 human breast adenocarcinoma cells; test: MTT antiproliferative assay, MCF-7; conditions: for IC50: Homo sapiens, MCF7, 72 h, read-out: IC50 (µM) ± S.D. MCF-7 Breast Cancer; for Selectivity index (IC50 normal fibroblast/IC50 MCF-7): fibroblasts/breast cancer, second value of the SI cell
# Method: as §1
# [3] = system: K-562 human chronic myelogenous leukemia cells; test: MTT antiproliferative assay, K-562; conditions: for IC50: Homo sapiens, K562, 72 h, MTT, 72 h treatment, mean ± SD, read-out: IC50 (µM) ± S.D. K-562 Leukemia; for Selectivity index (IC50 normal fibroblast/IC50 K-562): fibroblasts/leukemia, third value of the SI cell
# Method: as §1
# [4] = system: human dermal fibroblast normal cell line; test: MTT assay, normal dermal fibroblasts; conditions: 72 h treatment, read-out: IC50 (µM) ± S.D. Dermal Fibroblast Normal
# Method: as §1
SMILES,IC50 [1],"IC50 ([2]; MTT, 72 h treatment, mean ± SD)",IC50 [3],"IC50 (µM) ± S.D. MCF-7 Breast Cancer ([2]; MTT, 72 h treatment, mean ± SD)",Selectivity index (IC50 normal fibroblast/IC50 HCT-116) [1],Selectivity index (IC50 normal fibroblast/IC50 MCF-7) [2],Selectivity index (IC50 normal fibroblast/IC50 K-562) [3],IC50 [4],Selectivity for HCT-116 over MCF-7 [1]
"O=C(Nc1ccc(Cl)cc1)c1cc2ccccc2[nH]1 [Compound 4, N-(4-Chlorophenyl)-1H-indole-2-carboxamide]",3.94 ± 0.03 µM,10.6 ± 0.53 µM,0.61 ± 0.03 µM,,> 25.4,> 9.4,> 164,> 100 µM,
"O=C(Nc1ccc(F)cc1)c1cc2ccccc2[nH]1 [Compound 6, N-(4-Florophenyl)-1H-indole-2-carboxamide]",25.4 ± 0.38 µM,80.8 ± 4.04 µM,84.6 ± 4.23 µM,,> 3.9,> 1.2,> 1.2,> 100 µM,
"O=C(Nc1ccc([N+](=O)[O-])cc1)c1cc2ccccc2[nH]1 [Compound 8, N-(4-Nitrophenyl)-1H-indole-2-carboxamide]",32 ± 0.83 µM,> 100 µM,> 100 µM,exceptional resistance,> 3.1,,,> 100 µM,
"O=C(Nc1cccc2c1C(=O)c1ccccc1C2=O)c1cc2ccccc2[nH]1 [Compound 12, N-(9,10-Dihydro-9,10-dioxoanthracen-1-yl)-1H-indole-2-carboxamide]",3.98 ± 0.06 µM,,0.33 ± 0.02 µM,,> 25.1,> 11.0,> 303,> 100 µM,
"O=C(Nc1cccc2c1C(=O)c1ccccc1C2=O)c1ccco1 [Compound 16, N-(9,10-Dihydro-9,10-dioxoanthracen-1-yl)-2-furamide]",3.11 ± 0.049 µM,33.1 ± 1.66 µM,> 100 µM,,> 32.2,> 3.0,,> 100 µM,10.6 fold

# Now those with a lower IC50 [1], led by results:
IC50 [1],"IC50 ([2]; MTT, 72 h treatment, mean ± SD)",IC50 [3],"IC50 (µM) ± S.D. MCF-7 Breast Cancer ([2]; MTT, 72 h treatment, mean ± SD)",SMILES,Selectivity index (IC50 normal fibroblast/IC50 HCT-116) [1],Selectivity index (IC50 normal fibroblast/IC50 MCF-7) [2],Selectivity index (IC50 normal fibroblast/IC50 K-562) [3],IC50 [4],Selectivity for HCT-116 over MCF-7 [1]
1.01 ± 0.04 µM,70.3 ± 3.52 µM,> 100 µM,,"O=C(Nc1ccccn1)c1cc2ccccc2[nH]1 [Compound 10, N-(Pyridin-2-yl)-1H-indole-2-carboxamide]",> 99.4,> 1.4,,> 100 µM,69.6 fold
2.64 ± 0.07 µM,7.16 ± 0.36 µM,,,"O=C(Nc1ccc2c(c1)C(=O)c1ccccc1C2=O)c1cc2ccccc2[nH]1 [Compound 14, N-(9,10-Dihydro-9,10-dioxoanthracen-2-yl)-1H-indole-2-carboxamide]",> 37.9,> 14.0,> 164,> 100 µM,
